Reference: the supplement of paper PMC10627819

How the values were obtained:
Assay in all cases: fitness (endpoint OD595 vs no drug) (fraction); higher = more growth
S. aureus DSM 20231 = test system: S. aureus DSM 20231
Outline: (§1)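 Bacterial fitness was scored as optical density at the stationary-phase transition relative to the robust mean of no-drug control wells. Scores are capped at 1. The growth data were OD595 readings every 30 min for 14 h at 37 °C, background-subtracted against the first reading, from 384-well plates inoculated at OD595 0.01 in TSB, LB Lennox or CY.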

B. subtilis 168 = test system: B. subtilis 168
Outline: as §1

S. pneumoniae D39V = test system: S. pneumoniae D39V
Outline: as §1

S. aureus Newman = test system: S. aureus Newman
Outline: as §1
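Also: OD595 on entry to stationary phase over no-drug wells; at most 1.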

CN(C)[C@@H]1C(O)=C(C(N)=O)C(=O)[C@@]2(O)C(O)=C3C(=O)c4c(O)ccc(Cl)c4[C@@](C)(O)[C@H]3C[C@@H]12 [Chlortetracycline] + O=C(O[C@@H]1Cc2c(O)cc(O)cc2O[C@@H]1c1cc(O)c(O)c(O)c1)c1cc(O)c(O)c(O)c1 [EGCG]
S. aureus DSM 20231, first compound 0.006 µg/mL, one replicate
Details	fitness
partner 12.5 µg/mL	0.65
partner 25 µg/mL	0.623
partner 50 µg/mL	0.673

fitness
Details	partner 6.25 µg/mL	partner 12.5 µg/mL	partner 25 µg/mL	partner 50 µg/mL
B. subtilis 168, first compound 0.0475 µg/mL	0.911	–	0.303	–
B. subtilis 168, first compound 0.095 µg/mL	0.754	0.463	–	–
B. subtilis 168, first compound 0.19 µg/mL	0.484	0.214	0.0594	–
S. aureus DSM 20231, first compound 0.012 µg/mL	–	0.595	0.549	–
S. aureus DSM 20231, first compound 0.024 µg/mL	–	0.455	0.398	0.332
S. aureus DSM 20231, first compound 0.048 µg/mL	–	0.138	0.108	0
S. pneumoniae D39V, first compound 0.012 µg/mL	–	0.759	0.805	0.949
S. pneumoniae D39V, first compound 0.024 µg/mL	–	0.444	0.454	0.672
S. pneumoniae D39V, first compound 0.048 µg/mL	–	0.247	0.212	–
S. pneumoniae D39V, first compound 0.375 µg/mL	–	0.07	0.0693	0.0612
S. pneumoniae D39V, first compound 0.75 µg/mL	–	0.0431	0.0527	0.0692
S. pneumoniae D39V, first compound 1.5 µg/mL	–	0.0475	0.0473	0.0718

COc1cccc2c1C(=O)c1c(O)c3c(c(O)c1C2=O)C[C@@](O)(C(=O)CO)C[C@@H]3O[C@H]1C[C@H](N)[C@H](O)[C@H](C)O1 [Doxorubicin] + CO/N=C(\C(=O)N[C@@H]1C(=O)N2C(C(=O)[O-])=C(C[N+]3(C)CCCC3)CS[C@H]12)c1csc(N)n1 [Cefepime]
fitness
Details	first compound 0.25 µg/mL	first compound 0.5 µg/mL	first compound 0.625 µg/mL	first compound 1 µg/mL	first compound 1.25 µg/mL	first compound 2.5 µg/mL
S. aureus DSM 20231, partner 0.125 µg/mL	–	–	0.861	–	0.828	0.721
S. aureus DSM 20231, partner 0.25 µg/mL	–	–	0.826	–	0.814	0.656
S. aureus DSM 20231, partner 0.5 µg/mL	–	–	0.741	–	0.71	0.62
S. aureus Newman, partner 0.125 µg/mL	–	–	0.783	–	0.773	0.716
S. aureus Newman, partner 0.25 µg/mL	–	–	0.762	–	0.744	0.696
S. aureus Newman, partner 0.5 µg/mL	–	–	0.659	–	0.732	0.683
S. pneumoniae D39V, partner 0.007 µg/mL	0.937	0.949	–	0.957	–	–
S. pneumoniae D39V, partner 0.0078 µg/mL	≥ 1	≥ 1	–	0.938	–	–
S. pneumoniae D39V, partner 0.014 µg/mL	0.912	0.935	–	0.942	–	–
S. pneumoniae D39V, partner 0.0155 µg/mL	0.974	0.994	–	0.917	–	–
S. pneumoniae D39V, partner 0.028 µg/mL	0.783	0.846	–	0.825	–	–
